# Measured values taken from publication PMC9028786, “The Ribosome Is the Ultimate Receptor for Trypsin Modulating Oostatic Factor (TMOF)” (Biomolecules, 2022).
# Read-outs that look alike come from different tables or passages of the source. Ends that are not written are not given here.
# Columns and labels:
# [1] = tested on: E. coli CGSC strain7636 cells expressing SbmA^+; test: Growth/viability of E. coli CGSC strain7636 expressing SbmA; assay type: cell-based, Escherichia coli; conditions: 3 and 10 mM peptide, 37 °C, 18 h, p < 0.05 vs control
# Protocol: (§1) We aimed to find out if AeaTMOF can also stop bacterial growth as, was shown for the proline-rich Oncocin112 that binds to the bacterial ribosome, stopping protein translation, bacterial growth, and causing bacterial death. E. coli CGSC strain7636 (2.7 × 10^4 cells) SbmA^+, expressing the proline-rich peptides importer SbmA, were incubated in 96-well plate containing 100 μL/well of LB medium, 0.4 mM of IPTG, 0.1 mM of ampicillin, and different concentrations of AeaTMOF and Oncocin112 (1–13) (3 mM and 10 mM) in different wells. The 96-well plate was incubated at 37 °C for 18 h and bacterial growth was followed at 630 nm using Biotech ElX808 absorbance microplate reader. Control wells contained bacterial cells growing without AeaTMOF or oncocin112 (1–13). […] After the incubations in the presence of Oncocin112 (1–13) or AeaTMOF of 10 mM and 3 mM, aliquots (0.5 μL) were removed from each well and spread on LB agar plates containing 0.1 mM of ampicillin, and the plates were incubated overnight at 37 °C and viable colonies were counted. Incubations were done in triplicates and the experiments were repeated twice. Results are expressed as means of three determinations ± SEM.
# Ae. aegypti larvae = conditions: fed AeaTMOF expressed by engineered Chlorella desiccate, Saccharomyces cerevisiae, and Pichia pastoris; cited from earlier work
# Text: (§2) Several of these ABC transporters with 80–100% similarity with the AeaTMOF receptor are also found in several Aedes, Anopheles, and ...
# [2] = tested on: trypsin mRNA in the gut epithelial cells; conditions: gut epithelial cells of Ae. aegypti and Neobellieria bullata; cited from earlier work
# Text: as §2
# [3] = tested on: ABC-tmfA transporter (accession number MK895491); conditions: cited from earlier work
# Text: as §2
# female mosquitoes = conditions: injection after blood meal; cited from earlier work
# bacterial 70 S ribosome = test: Inhibition of luciferase translation in E. coli S30 extract; assay type: biochemical, Escherichia coli; conditions: 2 h at 37 °C
# Protocol: To test the effect of AeaTMOF and Oncocin112 (1–13) on the translation of Luciferase by the bacterial 70 S ribosome, an E. coli S30 lysate extract system for circular DNA (Promega) containing a plasmid pBestluc DNA vector (4486 bp) (1 mg/mL) 0.3 μL, amino acid mixture without methionine (1 mM) 1.25 μL, amino acid mixture without Leucine (1 mM) 1.25 μL, S30 premix (including ribosomes) without amino acids 5 μL, S30 extract circular 3.5 μL, RNasin (8 U, 112 ng) 0.2 μL, different concentrations of AeaTMOF or Oncocin112 (1–13) (0.001 μM to 1000 μM), and nuclease-free water to a volume of 12.5 μL were incubated for 2 h at 37 °C. […] After incubation, 87.5 μL of GLO lysis buffer (Promega) containing beetle luciferin was added, mixed, and aliquots (5 μL) were removed, and their luminescence read in a GLOMAX multidetector system. […] The decrease in luminescence (% ± SEM) in the presence of increasing log AeaTMOF or Oncocin112 (1–13) concentrations was then plotted using GrapPad Prism 3.
# [4] = tested on: E. coli mutant cells CGSC strain 8547 SbmA^- expressing only ABC-tmfA importer; test: Growth/viability of E. coli mutant CGSC strain 8547 SbmA^- expressing ABC-tmfA importer; assay type: cell-based, Escherichia coli
# Protocol: E. coli CGSC strain […] lacking the SbmA importer expressing the ABCtmfA receptor/importer was prepared using plasmid pTAC-MAT-2 ABCtmfA importer/receptor as described earlier. [3,4,5 ^3H]Leucine 250 μCi, Spc Act 100–150 Ci/mmol was purchased from Perkin Elmer (Waltham, MA, USA). AeaTMOF-FITC (H-YDPAPPPPPPK(FITC)K-OH) was synthesized at the University of Colorado Anschutz School of Medicine protein core. AeaTMOF-FITC was purified by HPLC showing a single peak, and mass spectrometry analysis of the peak identified the 3 expected ions at 455.7, 607.3, and 910.3, showing an expected Mr 1019.56 as was described earlier. Synthetic AeaTMOF (H-YDPAPPPPPP-OH) and a short Oncocin112(1–13) (H-VDKPPYLPRPRPP-OH), a 13 amino acids oncocin112 peptide, 6 amino acids shorter than the original oncocin112 of 19 amino acids, were synthesized and purified by HPLC [16]. After HPLC purifications of AeaTMOF, oncocin112 (1–13), and AeaTMOF-FITC, the TFA ions were exchanged with phosphate ions.
# as §1
# luciferase = test: Effect on activity of pre-synthesized luciferase; assay type: biochemical, Beetle; conditions: S30 extract with pBESTluc for 4 h without peptide, then AeaTMOF 1 to 100 μM added; results not shown
# Protocol: Incubations of E. coli S30 extract synthesizing Beetle luciferase in the presence of an increasing concentration of AeaTMOF (0.001 to 750 μM) stopped the biosynthesis of luciferase, diminishing its activity on Beetle luciferin as measured in luminescence units. The activity of the in vitro synthesized luciferase on Beetle luciferin at very low concentration of AeaTMOF (0.001 μM) was similar to luciferase activity without AeaTMOF, and this luminescence was used to calculate the decrease in luminescence (%) after incubation with increasing concentrations of AeaTMOF (Figure 1A). Higher concentrations of AeaTMOF (higher than 0.001 μM) caused a linear decrease in the synthesis of luciferase and a decline in luminescence (%) reaching IC50 (inhibition concentration of 50%) at 1 μM (Figure 1A). […] AeaTMOF is not an inhibitor of luciferase.
# [5] = tested on: S. frugiperda 80S ribosomes; test: Inhibition of larval Ae. aegypti late trypsin translation in TnT T7 insect cell extract; assay type: biochemical, Spodoptera frugiperda; conditions: TnT T7 insect cell extract from S. frugiperda Sf21, pFA25A ICE T7 flexi-late larval trypsin, [3H]leucine, 30 °C, 4 h, AeaTMOF 0.01–750 μM; mean of three determinations; linear regression; read-out: IC50, inhibition of Ae. aegypti late larval [3H]trypsin biosynthesis
# [6] = tested on: late trypsin transcript in the gut epithelial cells; conditions: circulating in hemolymph of females after the blood meal; cited from earlier work
# Text: (§3) Aedes aegypti Trypsin Modulating Oostatic Factor (AeaTMOF), a proline-rich peptide (YDPAPPPPPP), was originally isolated from the ovaries of female Ae. aegypti. AeaTMOF controls the biosynthesis of trypsin-like enzymes in the midgut epithelial cells of several species of mosquito including Aedes. aegypti, Culex quinquefasciatus, Culex. nigripalpus, and Anopheles albimanus. […] AeaTMOF was also ...
# late trypsin transcript = conditions: cited from earlier work
# Text: as §3
sequence,measurement,setting,value
YDPAPPPPPP [AeaTMOF],E. coli growth,[1]; 630 nm,significantly inhibited the growth of the E. coli cells
same,Viable colonies at end of incubation,"[1]; initial 2.7 × 10^4 cells, LB medium, plated on LB agar, triplicates",4–10 colonies
same,Effect on larvae,Ae. aegypti larvae,stopped larval trypsin biosynthesis and caused larval starvation and death
same,Effect on translation of trypsin mRNA,[2],stop the translation of trypsin mRNA
same,Binding to gut receptor/importer,[3],binds a gut-specific receptor ABC-tmfA transporter
same,Effect on blood-fed female mosquitoes,female mosquitoes,"only inhibits trypsin biosynthesis, and as a result the blood meal is not digested and egg development is inhibited, making the female mosquitoes sterile but not killing them"
same,Inhibition of luciferase biosynthesis at lowest concentration,"bacterial 70 S ribosome; AeaTMOF at 0.001 μM, Oncocin112 (1–13) at 0.01 μM",do not inhibit the biosynthesis of luciferase
same,Concentration of complete inhibition of luciferase biosynthesis,"bacterial 70 S ribosome; E. coli S30 extract, luminescence",250 to 750 µM
same,IC50,"bacterial 70 S ribosome; E. coli S30 lysate, pBestluc DNA, peptide 0.001 to 750 μM, luminescence read-out, mean of three determinations, read-out: IC50, inhibition of luciferase biosynthesis (luminescence)",1000 nM
same,E. coli growth,"[4]; SbmA^- cells expressing ABC-tmfA importer, 3 and 10 mM peptide, 37 °C, 18 h, 630 nm, p < 0.05 for inhibition",significantly (p < 0.05) inhibited
same,E. coli cell growth (discussion),"[4]; cells that only expressed ABCtmfA receptor/importer, up to 10 mM",inhibiting protein synthesis and cell growth
same,Importer used,"[4]; inferred from growth of SbmA^+ and SbmA^- ABC-tmfA E. coli, 3 and 10 mM","can use the mosquito ABCtmfA importer, as well as the bacterial SbmA importer"
same,Effect on activity of luciferase synthesized in vitro,luciferase,did not affect the activity of luciferase
same,IC50,[5],1800 nM
same,Effect on translation of late trypsin transcript,[6],affects the translation of the late trypsin transcript in the gut epithelial cells
same,Inhibition of translation of late trypsin transcript,"late trypsin transcript; AeaTMOF expressed on coat protein of Tobacco Mosaic Virus, fed to insects",stopped the translation of the trypsin transcript in the gut epithelial cells
same,Inhibition of translation of late trypsin transcript,late trypsin transcript,inhibit the translation of the late trypsin transcript
